Consider 26 molecules from patent US20210139507A1, “FUSED PYRIDINES WHICH ACT AS INHIBITORS OF H PGDS” (GlaxoSmithKline Intellectual Property Development Limited, priority 2017, published 2021).

For one assay, the target named is T1, hematopoietic prostaglandin D synthase (H-PGDS) (Homo sapiens, UniProt O60760).
T1 construct: Full length human H-PGDS cDNA (Invitrogen Ultimate ORF IOH13026) was amplified by PCR; 6-His (N); TEV protease cleavage site (N); made in house; host or cells: E. coli BL21 (DE3*), vector pET22b+
T1 sequence (O60760 whole entry): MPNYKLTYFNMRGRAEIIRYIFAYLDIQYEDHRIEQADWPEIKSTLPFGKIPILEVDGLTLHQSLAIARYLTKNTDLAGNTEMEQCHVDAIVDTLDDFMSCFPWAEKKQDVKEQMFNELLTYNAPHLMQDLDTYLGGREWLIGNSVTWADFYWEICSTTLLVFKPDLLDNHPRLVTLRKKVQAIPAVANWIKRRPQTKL
In words: H-PGDS RapidFire High Throughput Mass Spectrometry Assay. Type of assay: biochemical. Conditions: conversion of PGH2 to PGD2 by human H-PGDS, 10 nM enzyme. Here is the method: The H-PGDS RapidFire™ mass spectrometric assay monitors conversion of prostaglandin H2 (PGH2) to prostaglandin D2 (PGD2) by hematopoietic prostaglandin D synthase (H-PGDS). In the assay format described here, the substrate (PGH2) is formed in situ by the action of cyclooxygenase-2 on arachidonic acid. This first step is set up to be fast, and generates a burst of PGH2 at ˜10 μM. The PGH2 is then further converted to PGD2 by the H-PGDS enzyme. […] Plates are then read on the RapidFire™ high throughput solid phase extraction system (Agilent) which incorporates a solid phase extraction step coupled to a triple quadrupole mass spectrometer (AB SCIEX). Relative levels of PGD2 and PGF2α, which acts as a surrogate for substrate, are measured and a percent conversion calculated. Inhibitors are characterized as compounds which lower the conversion of PGH2 to PGD2.
Full length human H-PGDS cDNA (Invitrogen Ultimate ORF IOH13026) was amplified by PCR with the addition of a 5′ 6-His tag and TEV protease cleavage site. The PCR product was digested with NdeI and XhoI and ligated into pET22b+ (Merck Novagen®). Expression was carried out in E. coli strain BL21 (DE3*) using auto-induction Overnight Express™ Instant TB medium (Merck Novagen®) supplemented with 1% glycerol. The culture was first grown at 37° C. and the temperature was reduced to 25° C. when OD600 reached 2.0. Cells were harvested by centrifugation after a further 18 hours. 10 g of E. coli cell pellet was suspended to a total volume of 80 mL in lysis buffer (20 mM Tris-Cl pH 7.5, 300 mM NaCl, 20 mM imidazole, 5 mM β-mercaptoethanol, 10% glycerol). 1 mg/mL protease inhibitors (Protease Inhibitor Cocktail Set III, Merck Calbiochem®) and 1 mg/mL lysozyme were added to the cell suspension. The suspension was then sonicated for 5 min (Ultrasonic Processor VCX 750, Cole-Parmer Instrument Co.) with a micro probe (50% amplitude, 10 sec on/off) and then centrifuged at 100,000 g for 90 minutes (at 4° C.). The supernatant was loaded onto a Ni-NTA HiTrap column (5 mL, GE Healthcare, pre-equilibrated in lysis buffer). The column was washed with 10 column volumes of lysis buffer and eluted with lysis buffer containing 500 mM imidazole. The pooled protein peak fractions were concentrated using a 10 kDa centrifugal filter at 3500 g and 4° C. (Amicon Ultra-15 centrifugal filter unit with Ultracel-10 membrane from Millipore). Further purification of the concentrated protein was carried out using gel filtration chromatography on a HiLoad 26/600 Superdex75 preparative grade column (GE Healthcare Life Sciences) using 50 mM Tris pH 7.5, 50 mM NaCl, 1 mM dithiothreitol, 1 mM MgCl2. Fractions containing the protein were pooled, concentrated as described above, and stored at −80° C.
The full length human COX-2 gene (accession number L15326) was amplified by PCR to generate an EcoRI-Hindi 11 fragment containing an in-frame FLAG tag. This was subcloned into pFastBac 1 (Invitrogen). The COX-2 FLAG plasmid was recombined into the baculovirus genome according to the BAC-to-BAC protocol described by Invitrogen. Transfection into Spodoptera frugiperda (Sf9) insect cells was performed using Cellfectin (Invitrogen), according to the manufacturer's protocol. Super Sf9 cells were cultured in EX420 media (SAFC Biosciences) to a density of approximately 1.5×10^6 cells/mL within a wave bioreactor. Recombinant virus was added at a Multiplicity of Infection (MOI) of 5 and the culture was allowed to continue for 3 days. Cells were harvested using a continuous feed centrifuge run at 2500 g at a rate of approximately 2 L/min with cooling. The resultant cell slurry was re-centrifuged in pots (2500 g, 20 min, 4° C.) and the cell paste was stored at −80° C. 342 g of cell paste was re-suspended to a final volume of 1600 mL in a buffer of 20 mM Tris-Cl pH 7.4, 150 mM NaCl, 0.1 mM EDTA, 1.3% w/v n-octyl-β-D-glucopyranoside containing 20 Complete EDTA-free Protease Inhibitor Cocktail tablets (Roche Applied Science). […]
For “N-(trans-4-(2-Hydroxypropan-2-yl)cyclohexyl)-2-((1S,2R)-2-methylcyclopropyl)thieno[3,2-b]pyridine-6-carboxamide and N-(trans-4-(2-hydroxypropan-2-yl)cyclohexyl)-2-((1R,2S)-2-methylcyclopropyl)thieno[3,2-b]pyridine-6-carboxamide [Example 10]”, the “Potency Range (mean pIC50)” value is on record as “*** (*** = pIC50 7.1-8.0)”.

The same assay, now with this note: conversion of PGH2 to PGD2 by human H-PGDS, 10 nM enzyme; mean pIC50; read-out: Potency Range (mean pIC50) (converted).
Consider `Cn1nnnc1N1CCC(NC(=O)c2cnc3nc(C4CC4)sc3c2)CC1` [Example 31, 2-Cyclopropyl-N-(1-(1-methyl-1H-tetrazol-5-yl)piperidin-4-yl)thiazolo[4,5-b]pyridine-6-carboxamide], for which the IC50 was 0.1 to 1 µM.

`CC(C)Nc1nc2ncc(C(=O)N[C@H]3CC[C@H](C(C)(C)O)CC3)cc2s1` [Example 5]: the IC50 is 0.1 to 1 µM.

Turning to `CC(C)(O)C1CC2(CC(NC(=O)c3cnc4nc(C5CC5)sc4c3)C2)C1` (racemic) [Example 15, (Racemic)-2-cyclopropyl-N-(6-(2-hydroxypropan-2-yl)spiro[3.3]heptan-2-yl)thiazolo[4,5-b]pyridine-6-carboxamide], the IC50 is 0.01 to 0.0794 µM.

Turning to `C[C@H]1CCN1c1nc2ncc(C(=O)N[C@H]3CC[C@H](C(C)(C)O)CC3)cc2s1` [Example 34, N-(trans-4-(2-Hydroxypropan-2-yl)cyclohexyl)-2-((S)-2-methylazetidin-1-yl)thiazolo[4,5-b]pyridine-6-carboxamide], the IC50 is 0.01 to 0.0794 µM.

For `CS(=O)(=O)CC(O)[C@H]1CC[C@H](NC(=O)c2cnc3nc(C4CC4)sc3c2)CC1` (mixture of isomers) [Example 28, Racemic 2-cyclopropyl-N-(trans-4-(1-hydroxy-2-(methylsulfonyl)ethyl)cyclohexyl)thiazolo[4,5-b]pyridine-6-carboxamide], the IC50 is 0.1 to 1 µM.

For the molecule `C[C@]1(O)C[C@@H](NC(=O)c2cnc3cc(C4CC4)sc3c2)C1` [Example 4], the IC50 is 1.26 to 10 µM.

On to `CC(C)(O)[C@H]1CC[C@H](NC(=O)c2cnc3nc(N(C4CC4)C4CC4)sc3c2)CC1` [Example 36, 2-(Dicyclopropylamino)-N-(trans-4-(2-hydroxypropan-2-yl)cyclohexyl)thiazolo[4,5-b]pyridine-6-carboxamide], for which the IC50 is 1.26 to 10 µM.

With `O=C(N[C@H]1CC[C@H](N2CC(F)(F)C2)CC1)c1cnc2nc(C3CC3)sc2c1` [Example 21, 2-Cyclopropyl-N-((trans)-4-(3,3-difluoroazetidin-1-yl)cyclohexyl)thiazolo[4,5-b]pyridine-6-carboxamide], the IC50 was 0.1 to 1 µM.

With `CC(C)(O)[C@H]1C[C@H](NC(=O)c2cnc3nc(C4CC4)sc3c2)C1` [Example 22, 2-Cyclopropyl-N-((trans)-3-(2-hydroxypropan-2-yl)cyclobutyl)thiazolo[4,5-b]pyridine-6-carboxamide], the IC50 was 0.1 to 1 µM.

In the case of `CC(C)(O)C12CC(NC(=O)c3cnc4cc(C5CC5)sc4c3)(C1)C2` [Example 12, 2-Cyclopropyl-N-(3-(2-hydroxypropan-2-yl)bicyclo[1.1.1]pentan-1-yl)thieno[3,2-b]pyridine-6-carboxamide], the IC50 was 0.01 to 0.0794 µM.

Turning to `CSc1nc2ncc(C(=O)N[C@H]3CC[C@H](C(C)(C)O)CC3)cc2s1` [Example 39, N-((trans)-4-(2-Hydroxypropan-2-yl)cyclohexyl)-2-(methylthio)thiazolo[4,5-b]pyridine-6-carboxamide], the IC50 was 0.01 to 0.0794 µM.

Take `CC(C)N(c1nc2ncc(C(=O)N[C@H]3CC[C@H](C(C)(C)O)CC3)cc2s1)C(C)C` [Example 37, 2-(Diisopropylamino)-N-(trans-4-(2-hydroxypropan-2-yl)cyclohexyl)thiazolo[4,5-b]pyridine-6-carboxamide]: the IC50 is 1.26 to 10 µM.

As to `CC(C)(O)[C@H]1CC[C@H](NC(=O)c2cnc3nc(C4CCC4)sc3c2)CC1` [Example 14, 2-Cyclobutyl-N-((trans)-4-(2-hydroxypropan-2-yl)cyclohexyl)thiazolo[4,5-b]pyridine-6-carboxamide], the IC50 is 0.01 to 0.0794 µM.

As for `O=C(N[C@H]1CCNC1=O)c1cnc2nc(C3CC3)sc2c1` [Example 19, (S)-2-Cyclopropyl-N-(2-oxopyrrolidin-3-yl)thiazolo[4,5-b]pyridine-6-carboxamide], the IC50 is 0.1 to 1 µM.

With `O=C(N[C@H]1CC[C@H](OCCO)CC1)c1cnc2nc(C3CC3)sc2c1` [Example 18, 2-Cyclopropyl-N-((trans)-4-(2-hydroxyethoxy)cyclohexyl)thiazolo[4,5-b]pyridine-6-carboxamide], the IC50 is 0.1 to 1 µM.

On to `COc1nc2ncc(C(=O)N[C@H]3CC[C@H](C(C)(C)O)CC3)cc2s1` [Example 40, N-((trans)-4-(2-Hydroxypropan-2-yl)cyclohexyl)-2-methoxythiazolo[4,5-b]pyridine-6-carboxamide], for which the IC50 was 0.1 to 1 µM.

For the molecule `CN(C)c1nc2ncc(C(=O)N[C@H]3CC[C@H](C(C)(C)O)CC3)cc2s1` [Example 9], the IC50 was 0.01 to 0.0794 µM.

Take `O=C(NC1C[C@H](O)C[C@@H](O)C1)c1cnc2nc(C3CC3)sc2c1` (mixture of isomers) [Example 41, Racemic 2-cyclopropyl-N-((3S,5S)-3,5-dihydroxycyclohexyl)thiazolo[4,5-b]pyridine-6-carboxamide]: the IC50 is 0.1 to 1 µM.

As to `CC(C)c1nc2ncc(C(=O)N[C@H]3CC[C@H](C(C)(C)O)CC3)cc2s1` [Example 30, N-(trans-4-(2-Hydroxypropan-2-yl)cyclohexyl)-2-isopropylthiazolo[4,5-b]pyridine-6-carboxamide], the IC50 was 0.1 to 1 µM.

For the molecule `CC(C)(O)[C@H]1CC[C@H](NC(=O)c2cnc3nc(N4CCCC4)sc3c2)CC1` [Example 33, N-(trans-4-(2-Hydroxypropan-2-yl)cyclohexyl)-2-(pyrrolidin-1-yl)thiazolo[4,5-b]pyridine-6-carboxamide], the IC50 is 0.1 to 1 µM.

For `O=C(N[C@H]1CC[C@H](C(O)C(F)(F)F)CC1)c1cnc2nc(C3CC3)sc2c1` (mixture of isomers) [Example 32, Racemic 2-Cyclopropyl-N-(trans-4-(2,2,2-trifluoro-1-hydroxyethyl)cyclohexyl)thiazolo[4,5-b]pyridine-6-carboxamide], the IC50 is 0.01 to 0.0794 µM.

Regarding `O=C(N[C@H]1CC[C@H](O)CC1)c1cnc2nc(C3CC3)sc2c1` [Example 16, 2-Cyclopropyl-N-((trans)-4-hydroxycyclohexyl)thiazolo[4,5-b]pyridine-6-carboxamide], the IC50 is 0.1 to 1 µM.

Take `O=C(N[C@H]1CC[C@H](CO)CC1)c1cnc2nc(C3CC3)sc2c1` [Example 20, 2-Cyclopropyl-N-((trans)-4-(hydroxymethyl)cyclohexyl)thiazolo[4,5-b]pyridine-6-carboxamide]: the IC50 was 0.1 to 1 µM.

On to `CNc1nc2ncc(C(=O)N[C@H]3CC[C@H](C(C)(C)O)CC3)cc2s1` [Example 7], for which the IC50 is 0.1 to 1 µM.

For `CC(C)(O)[C@H]1CC[C@H](NC(=O)c2cnc3cc(Br)sc3c2)CC1` [Example 1], the IC50 is 0.1 to 1 µM.
